How the values were obtained:
[1] = test system: deoxymyoglobin; test: Myoglobin assay, CO release under 365 nm UV light; details: 365 nm lamp; for [MbCO] / Released-CO Equivalent / Half-life t 1/2 (50% of total CO release): 15 μM complex, pH 7.4; for [MbCO]: 60 μM myoglobin reduced with sodium dithionite; for Released-CO Equivalent / Half-life t 1/2 (50% of total CO release): 60 μM myoglobin; for Released-CO Percent: percent of the total CO
Protocol: The myoglobin solution, which was prepared in PBS (pH 7.4, 0.1 M), was reduced to deoxymyoglobin using sodium dithionite (100 mM). The solutions of each complex ([…]) in DMSO were incubated with deoxymyoglobin solution ([…]), and the final solution was exposed to 365 nm UV light from a distance of 2 cm. Deoxymyoglobin has a band at 557 nm, while carbonmonoxy-myoglobin has two identical bands at 540 and 577 nm, and the changes at these wavelengths make the process observable and determinable. Thus, the CO-releasing properties of the molecules were calculated using the Lambert–Beer Law.
The commonly used method for determining the CO-releasing of a molecule is UV–visible spectroscopy. There are various ways for releasing CO from a molecule such as substitution, decomposition, and photoactivation. , Manganese carbonyl complexes are known as photoactivatable CO-releasing molecules (photoCORM). A photoCORM must be stable in the dark while it releases CO upon exposure to light of a certain wavelength. […] The basic principle of the myoglobin assay is based on the formation of carbon monoxymyoglobin with the interaction of deoxymyoglobin with CORMs by the spectrophotometric method. […] A 15 μM solution of the complexes was incubated with a 60 μM myoglobin solution reduced with sodium dithionite in a pH 7.4 buffered medium, and the change was followed by the spectroscopic method. The CO-releasing properties of a molecule could be evaluated from two perspectives: the first is how fast the molecule’s release is, and the second is how high the rate of the releasing is.

[2] = target: BSA (Bos taurus, UniProt P02769); test: BSA binding analysis, UV-vis, Benesi-Hildebrand method; design: species or system bovine; details: 15 μM BSA, 0-14 μM complex, PBS pH 7.4, 20 min room temperature, band at 280 nm
Protocol: BSA binding analysis of the molecules was performed with UV–vis spectroscopy, and the records were evaluated using the Benesi-Hildebrand equation. The BSA stock solution was freshly prepared in phosphate-buffered saline (pH 7.4), while the stock solutions of the molecules were prepared in DMSO. A certain BSA solution (15 μM) was incubated with each molecule at different concentrations (0, 2, 4, 6, 8, 10, 12, and 14 μM) for 20 min at room temperature. The absorption spectra of all solutions were recorded between 250 and 350 nm.

[3] = test system: CT-DNA; test: DNA binding analysis, UV-vis, Benesi-Hildebrand method; details: 25 μM DNA, 0-35 μM complex, Tris-HCl pH 7.4, 1 h room temperature, absorbance at 260 nm
Protocol: DNA-binding properties of the molecules were analyzed with the Benesi–Hildebrand method with UV–vis spectroscopy. The stock solution of manganese complexes (3 mM) was prepared with DMSO, while a fresh stock solution of DNA from commercial CT-DNA was prepared in Tris-HCl buffer solution (pH = 7.4), and the ratio of A 260/A 280 of the DNA stock was recorded as 1.93. A certain concentration of DNA (25 μM) solution was incubated with different amounts of each complex (0, 5, 10, 15, 20, 25, 30, and 35 μM) for 1 h at room temperature. The absorption spectra of all solutions were recorded using a Shimadzu UV-1800 spectrophotometer between 240 and 500 nm.
In this study, the DNA-binding affinity of the molecules was also confirmed with a UV–vis spectrophotometer. […] While small fluctuations for 300 μM of each complex were recorded upon the addition of DNA solutions with different concentrations (0, 20, 40, 60, 80, 100, 120, and 140 μM) at 388 nm (Figures S6–S10), remarkable changes were detected at 260 nm, which is characteristic of DNA.
Here, A o is the absorbance of DNA in the absence of the manganese complex, A obs is the absorbance of DNA at 260 nm with different amounts of the molecules, [M] is the molar concentration of the molecules, and K b is the binding constant. […] These binding constants are moderately available for DNA-target drug candidates.

Sequence of BSA (P02769 25-607): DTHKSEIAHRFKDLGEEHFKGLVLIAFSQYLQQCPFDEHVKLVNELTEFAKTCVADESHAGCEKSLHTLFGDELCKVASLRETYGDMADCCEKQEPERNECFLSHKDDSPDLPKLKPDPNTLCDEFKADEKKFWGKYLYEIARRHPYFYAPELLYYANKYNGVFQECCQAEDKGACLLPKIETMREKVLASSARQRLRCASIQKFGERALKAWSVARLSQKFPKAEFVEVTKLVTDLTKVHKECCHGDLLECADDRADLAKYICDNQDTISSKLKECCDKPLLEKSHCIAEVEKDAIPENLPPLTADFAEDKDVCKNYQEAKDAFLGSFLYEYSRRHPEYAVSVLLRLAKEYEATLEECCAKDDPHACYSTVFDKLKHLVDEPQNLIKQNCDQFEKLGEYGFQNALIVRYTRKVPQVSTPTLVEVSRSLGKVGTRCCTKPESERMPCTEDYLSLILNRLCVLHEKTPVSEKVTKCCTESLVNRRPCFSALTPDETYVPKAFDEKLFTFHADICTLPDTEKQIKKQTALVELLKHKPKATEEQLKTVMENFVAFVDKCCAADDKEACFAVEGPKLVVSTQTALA

[Mn(CO)3(bpy)(1-(2-metallyl)benzimidazole)]PF6 [2c]
[MbCO] [1]: 39.81 µM
Released-CO Equivalent [1]: 2.65
Released-CO Percent [1]: 88%
BSA binding constant [2]: 4.0 × 10^4 M^–1
DNA binding constant K b [3]: 1.8 × 10^4 M^–1

[Mn(CO)3(bpy)(1-(2-vinyloxyethyl)benzimidazole)]PF6 [2e]
[MbCO] [1]: 40.41 µM
Released-CO Equivalent [1]: 2.69
Released-CO Percent [1]: 90%
BSA binding constant [2]: 3.9 × 10^4 M^–1
DNA binding constant K b [3]: 2.7 × 10^4 M^–1

[Mn(CO)3(bpy)(1-(3,3-dimethylallyl)benzimidazole)]PF6 [2d]
[MbCO] [1]: 30.34 µM
Released-CO Equivalent [1]: 2.02
Released-CO Percent [1]: 67%
BSA binding constant [2]: 8.2 × 10^4 M^–1
DNA binding constant K b [3]: 2.4 × 10^4 M^–1

[Mn(CO)3(bpy)(1-isopropylbenzimidazole)]PF6 [2a]
[MbCO] [1]: 34.64 µM
Half-life t 1/2 (50% of total CO release) [1]: 4.02 min
Released-CO Equivalent [1]: 2.30
Released-CO Percent [1]: 77%
BSA binding constant [2]: 3.6 × 10^4 M^–1
DNA binding constant K b [3]: 3.2 × 10^4 M^–1

C=CCn1c[n+]([Mn-2]2(=[C]=O)(=[C]=O)(=[C]=O)[n+]3ccccc3-c3cccc[n+]32)c2ccccc21.F[P-](F)(F)(F)(F)F [2b, [Mn(CO)3(bpy)(1-allylbenzimidazole)]PF6]
[MbCO] [1]: 39.51 µM
Half-life t 1/2 (50% of total CO release) [1]: 4.85 min
Released-CO Equivalent [1]: 2.63
Released-CO Percent [1]: 88%
BSA binding constant [2]: 4.3 × 10^4 M^–1
DNA binding constant K b [3]: 2.2 × 10^4 M^–1
